According to ChEMBL document CHEMBL2429716, “Molecular modeling studies of substituted 3,4-dihydroxychalcone derivatives as 5-lipoxygenase and cyclooxygenase inhibitors” (Med Chem Res, 2013):

Assays:
[1] = target: T1, Cyclooxygenase (Rattus norvegicus, UniProt P35355+Q63921); test: Inhibition of cyclooxygenase in rat RBL1 cells; type: cell-based; conditions: rbl-1
T1 sequence (P35355 whole entry): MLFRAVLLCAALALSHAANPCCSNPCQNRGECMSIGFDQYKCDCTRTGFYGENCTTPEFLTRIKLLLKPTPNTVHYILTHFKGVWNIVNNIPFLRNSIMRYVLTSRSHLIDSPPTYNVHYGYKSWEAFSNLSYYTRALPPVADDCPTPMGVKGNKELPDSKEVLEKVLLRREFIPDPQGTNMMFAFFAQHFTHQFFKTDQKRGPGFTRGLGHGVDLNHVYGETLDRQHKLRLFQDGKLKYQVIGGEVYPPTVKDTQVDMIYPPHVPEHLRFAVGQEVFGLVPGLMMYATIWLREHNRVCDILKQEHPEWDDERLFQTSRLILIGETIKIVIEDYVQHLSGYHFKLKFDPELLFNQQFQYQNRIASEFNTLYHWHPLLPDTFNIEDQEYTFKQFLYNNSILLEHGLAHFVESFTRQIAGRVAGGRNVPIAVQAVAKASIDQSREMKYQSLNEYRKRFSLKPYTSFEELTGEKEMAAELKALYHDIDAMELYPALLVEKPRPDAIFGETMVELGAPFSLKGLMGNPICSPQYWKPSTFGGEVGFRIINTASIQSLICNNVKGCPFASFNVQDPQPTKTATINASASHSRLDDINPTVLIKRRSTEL
T1 sequence (Q63921 whole entry): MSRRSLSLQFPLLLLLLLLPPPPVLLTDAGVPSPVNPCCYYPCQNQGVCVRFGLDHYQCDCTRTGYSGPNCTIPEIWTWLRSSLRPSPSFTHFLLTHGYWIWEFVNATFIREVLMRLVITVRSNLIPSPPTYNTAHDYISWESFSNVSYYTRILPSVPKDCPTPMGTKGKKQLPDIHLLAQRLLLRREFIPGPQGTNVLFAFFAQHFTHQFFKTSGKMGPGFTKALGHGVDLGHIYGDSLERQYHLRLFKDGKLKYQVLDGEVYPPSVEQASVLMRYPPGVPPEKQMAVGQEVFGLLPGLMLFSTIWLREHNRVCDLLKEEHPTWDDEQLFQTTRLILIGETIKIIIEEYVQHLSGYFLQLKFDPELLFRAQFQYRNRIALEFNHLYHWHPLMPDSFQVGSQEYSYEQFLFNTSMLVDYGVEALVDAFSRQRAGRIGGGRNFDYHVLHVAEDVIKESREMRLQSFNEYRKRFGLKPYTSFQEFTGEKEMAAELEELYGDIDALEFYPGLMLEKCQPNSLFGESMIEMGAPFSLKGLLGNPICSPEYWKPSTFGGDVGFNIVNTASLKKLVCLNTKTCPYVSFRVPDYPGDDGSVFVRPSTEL

[2] = target: T2, Polyunsaturated fatty acid 5-lipoxygenase (Rattus norvegicus, UniProt P12527); test: Inhibition of 5-lipoxygenase in rat RBL1 cells; type: cell-based, RBL-1
T2 sequence (P12527 whole entry): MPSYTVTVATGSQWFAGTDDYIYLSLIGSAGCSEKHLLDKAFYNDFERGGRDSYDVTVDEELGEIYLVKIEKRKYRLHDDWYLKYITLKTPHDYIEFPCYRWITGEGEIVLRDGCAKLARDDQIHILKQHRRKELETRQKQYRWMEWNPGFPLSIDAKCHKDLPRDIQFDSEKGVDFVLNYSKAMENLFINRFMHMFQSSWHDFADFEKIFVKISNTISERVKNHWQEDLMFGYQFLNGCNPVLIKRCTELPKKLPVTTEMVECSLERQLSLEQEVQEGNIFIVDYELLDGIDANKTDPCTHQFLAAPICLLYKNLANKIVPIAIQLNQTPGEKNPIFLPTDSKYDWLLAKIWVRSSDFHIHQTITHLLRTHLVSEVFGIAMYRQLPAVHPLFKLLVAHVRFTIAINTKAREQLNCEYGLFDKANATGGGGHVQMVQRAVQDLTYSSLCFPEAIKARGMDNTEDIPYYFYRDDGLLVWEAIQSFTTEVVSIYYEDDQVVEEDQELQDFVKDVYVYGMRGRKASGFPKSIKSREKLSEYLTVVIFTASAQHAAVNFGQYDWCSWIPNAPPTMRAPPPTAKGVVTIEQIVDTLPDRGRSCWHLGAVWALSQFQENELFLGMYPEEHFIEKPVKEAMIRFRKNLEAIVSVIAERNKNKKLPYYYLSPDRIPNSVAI

| Structure (SMILES) | IC50 [1] [µM] | IC50 [2] [µM] |
| --- | --- | --- |
| COc1ccc(O)c(C(=O)/C=C/c2ccccc2)c1 | 41 | 41 |
| COc1ccccc1/C=C/C(=O)c1ccccc1 | 27 | 27 |
| O=C(/C=C/c1ccc([N+](=O)[O-])cc1)c1ccccc1 | 23 | 23 |
| O=C(/C=C/c1ccccc1)c1cc(O)ccc1O | 64 | 64 |
| COc1cc(/C=C/C(=O)c2ccc(Cl)cc2)ccc1O | 8.9 |  |
| O=C(/C=C/c1ccc(O)c(O)c1)c1cccc(O)c1 | 0.0042 |  |
| O=C(/C=C/c1ccc(O)c(O)c1)c1ccccc1 | 0.043 |  |
| COc1ccc(C(=O)/C=C/c2ccc(O)c(OC)c2)cc1 | 12 |  |
| COc1ccc(/C=C/C(=O)c2ccccc2)c(OC)c1 | 10 | 10 |
| COc1ccc(OC)c(C(=O)/C=C/c2ccccc2)c1 | 7.8 | 7.8 |
| O=C(/C=C/c1ccccc1C(F)(F)F)c1ccccc1 | 58 | 58 |
| Cc1ccc(O)c(C(=O)/C=C/c2ccccc2)c1 | 39 | 39 |
| COc1ccc(C)cc1C(=O)/C=C/c1ccccc1 | 24 | 24 |
| CCOc1ccc(OC)c(C(=O)/C=C/c2ccccc2)c1 | 38 | 38 |
| COc1ccc(OC(C)C)cc1C(=O)/C=C/c1ccccc1 | 14 | 14 |
| CCOc1ccc(OC)cc1C(=O)/C=C/c1ccccc1 | 27 | 27 |
| CCOc1ccc(OCC)c(C(=O)/C=C/c2ccccc2)c1 | 2.4 | 2.4 |
| Cc1ccc(C)c(C(=O)/C=C/c2ccccc2)c1 | 16 | 16 |
| CCOc1ccc(O)c(C(=O)/C=C/c2ccccc2)c1 | 5.3 | 5.3 |
| CC(C)c1ccc(O)c(C(=O)/C=C/c2ccccc2)c1 | 4 | 4 |
| CC(C)Oc1ccc(O)c(C(=O)/C=C/c2ccccc2)c1 | 11 | 11 |
| CCCCOc1ccc(O)c(C(=O)/C=C/c2ccccc2)c1 | 1 | 1 |
| Cc1ccc(/C=C/C(=O)c2ccccc2)c(C)c1 | 17 | 17 |

| Structure (SMILES) | IC50 [1] [µM] | IC50 [2] [µM] |
| --- | --- | --- |
| COc1ccc(OC)c(/C=C/C(=O)c2ccccc2)c1 | 7.8 | 7.8 |
| COc1ccc(O)c(/C=C/C(=O)c2ccccc2)c1 | 41 | 41 |
| CC(C)Oc1ccc(/C=C/C(=O)c2ccccc2)cc1 | 41 | 41 |
| CN(C)c1cccc(/C=C/C(=O)c2ccccc2)c1 | 9.8 | 9.8 |
| Cc1cccc(/C=C/C(=O)c2ccccc2)c1 | 27 | 27 |
| COc1cccc(OC)c1/C=C/C(=O)c1ccccc1 | 370 | 370 |
| COc1cccc(/C=C/C(=O)c2ccccc2)c1 | 6.5 | 6.5 |
| COc1ccc(/C=C/C(=O)c2ccccc2)cc1OC | 18 | 18 |
| O=C(/C=C/c1ccc(O)c(O)c1)c1ccccc1O | 0.023 |  |
| Cc1ccc(/C=C/C(=O)c2ccccc2)cc1 | 76 | 76 |
| CN(C)c1ccc(/C=C/C(=O)c2ccccc2)cc1 | 4.7 | 4.7 |
| COc1cc(/C=C/C(=O)c2ccccc2)ccc1O | 9 | 9 |
| COc1ccc(/C=C/C(=O)c2ccccc2)c(O)c1 | 15 | 15 |
| O=C(/C=C/c1ccccc1Cl)c1ccccc1 | 92 | 92 |
| Cc1cc(C)c(/C=C/C(=O)c2ccccc2)c(C)c1 | 400 | 400 |
| COc1cc(/C=C/C(=O)c2ccccc2)cc(OC)c1OC | 16 | 16 |
| O=C(/C=C/c1ccc(O)c(O)c1)c1c(O)cc(O)cc1O [3,4,2',4',6'-PENTAHYDROXYCHALCONE] | 0.14 |  |
| O=C(/C=C/c1ccc(Cl)cc1)c1ccccc1 [4-CHLORO CHALCONE] | 85 | 85 |
| COc1ccc(/C=C/C(=O)c2ccccc2)cc1 [4-METHOXY CHALCONE] | 20 | 20 |
| O=C(/C=C/c1ccc(O)c(O)c1)c1ccc(O)cc1O [BUTEIN] | 0.0046 |  |
| O=C(/C=C/c1ccccc1)c1ccccc1 [CHALCONE] | 43 | 43 |
| O=C(/C=C/c1ccc(O)cc1)c1ccc(O)cc1O [ISOLIQUIRITIGENIN] | 35 |  |
